The text below walks through data of US5279956A, “Activated protein C polypeptides and anti-peptide antibodies, diagnostic methods and systems for inhibiting activated protein C” (The Scripps Research Institute, priority 1991, dated 1994).

No end group written: not given here.

The target in the assay is T1, APC (Homo sapiens, UniProt P04070).
T1 construct: begins at amino acid residue position 158 and ends at 419; The light chain is 155 amino acid residues in length; tissue Factor IX concentrate from Immuno AG, Vienna; thrombin from Enzyme Research Laboratories
T1 sequence (P04070 212-461): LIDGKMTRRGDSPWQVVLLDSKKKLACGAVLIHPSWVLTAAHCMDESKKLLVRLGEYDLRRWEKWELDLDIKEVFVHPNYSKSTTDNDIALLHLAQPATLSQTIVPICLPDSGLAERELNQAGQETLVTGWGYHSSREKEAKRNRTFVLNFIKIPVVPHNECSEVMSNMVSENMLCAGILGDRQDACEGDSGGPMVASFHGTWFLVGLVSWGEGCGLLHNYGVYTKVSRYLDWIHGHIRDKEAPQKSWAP
T1 sequence (P04070 43-197): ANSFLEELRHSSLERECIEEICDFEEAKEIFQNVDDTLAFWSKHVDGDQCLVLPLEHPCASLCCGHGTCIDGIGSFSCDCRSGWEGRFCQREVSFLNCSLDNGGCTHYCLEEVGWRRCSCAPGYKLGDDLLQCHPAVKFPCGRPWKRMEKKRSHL
The assay can be described thus: APC anticoagulant activity, APTT and Xa-1-stage coagulation assays (mean or both). Type of assay: biochemical. The note with it: 500 μM peptide; mean of APTT and Xa-1-stage assays; 0 = no observable effect ± 10%. As for the experimental part:
The effect of the synthetic peptides on APC anticoagulant activity were determined using the APTT assay in the presence of either normal citrate anticoagulated plasma (NHP) or protein S depleted plasma (PSDP). The assays were performed essentially as described. See Marlar et al., Blood, 59:1067-1072 […]; Suzuki et al., J. Biol. Chem., 258:163-168 (1983); Gruber et al., Blood, 73:639-642 (1989); Ohlin et al., Biochem., 29:644-651 (1990). NHP was purchased from George King Bio-Medical, Inc. (Overland Park, Kans.). PSDP was prepared from a normal human citrate-anticoagulated plasma pool from ten healthy donors. Protein S was immunodepleted from the NHP by immunoaffinity chromatography of NHP over an anti-protein S antibody column to form PSDP. The anti-protein S antibody column was prepared by coupling 100 mg of a monoclonal, high-affinity, calcium-independent anti-PS antibody, designated S7, to 30 ml of CNBr-activated Sepharose 4B (Pharmacia) as described in Example 2c1).
For the APTT assay, APC was prepared as described in Example 2c2). […] The concentration of the APC used in the assay was initially optimized with respect to the sensitivity of the assay towards APC-induced prolongation of clotting time compared to clotting time without APC.
Once the optimal concentration of APC was determined, peptides from Table 2 were then separately admixed for a final concentration of 500 μM with 10 nM APC in 100 μl of TBS-BSA at pH 7.4 to form peptide-APC admixtures. The resulting admixtures were maintained for seven minutes at 37° C. Separate aliquots of peptides maintained under the same conditions in the absence of APC served as controls for the inhibitory effect of synthetic peptides on APC anticoagulant activity. After the maintenance period, 100 μl of NHP and 100 μl APTT-reagent Thrombosil (Ortho Diagnostics, Raritan, N.J.) were admixed into each peptide admixture and maintained for 200 seconds at 37° C. to form a pre-coagulation admixture. In some experiments, PSDP was used in the place of NHP to determine the effect of Protein S on the assay system. Coagulation was then initiated by the admixture of 100 μl of 30 mM CaCl2 in TBS prewarmed to 37° C. to each of the pre-coagulation admixtures. The time for clot formation was measured by an Electra 700 Automatic Coagulation Timer (Medical Laboratory Automation, Inc., Mount Vernon, N.Y.). Each peptide's effect was determined in duplicate.
The synthetic peptides listed in Table 4 are presented in the same order as listed in Table 2, i.e., are reproduced from Table 2. […] For peptides at a concentration of 500 μM that inhibited at least 50% of APC anticoagulant activity, analysis of dose-response was subsequently conducted. The column in Table 4 labeled "Inhibition of APC" represents the inhibition of APC anticoagulant activity measured with 500 μM peptide.
For testing the inhibition of the synthetic peptides on APC activity described above, Xa-1-stage coagulation assays were also performed as described. See Seegers et al., Thrombosis Res., 13:233-243 (1978); Marlar et al., supra; and Walker et al., J. Biol. Chem. 265:1484-1489 (1990).
Substance “AGILGDRQDA-NH2 [peptide-(346-355), AGILGDRQDA]” came in with an inhibition at 500 µM of 0%.

With DESKKLLVRLGEYDL [peptide-(214-230)], the “Inhibition of APC (%)” value stood at 0%.

“DIKEVFVHPNYSKST-NH2 [(239-253), DIKEVFVHPNYSKST]” displayed an inhibition at 500 µM of 20%.

As to “DRQDASEGDSGGPMV-NH2 [peptide-(351-365), DRQDA -SEGDSGGPMV]”, the inhibition at 500 µM came out at 0%.

For the substance “DTEDQEDQVDPRLID-NH2 [peptide-(158-172), DTEDQEDQVDPRLID]”, at 500 µM the inhibition was 0%.

With “ELDLDIKEVFVHPNY-NH2 [peptide-(235-249), ELDLDIKEVFVHPNY]”, the inhibition at 500 µM is 0%.

“EVMSNMVSENMLSAG-NH2 [peptide-(333-347), EVMSNMVSENML -SAG]”: 500 µM produced 0% inhibition.

With “GEYDLRRWEKWELDL-NH2 [peptide-(224-238), GEYDLRRWEKWELDL]”, the inhibition at 500 µM worked out at 0%.

Consider “GHIRDKEAPQKSWAP-NH2 [peptide-(405-419), GHIRDKEAPQKSWAP]”, for which testing at 500 µM gave an inhibition of 0%.

For the substance GTWFLVLVSWGEGC [peptide-(370-384)], the “Inhibition of APC (%)” value is 0%.

“HIWDLYRSVKTYVGY-NH2 [peptide-(404-390), HIWDLYRSVKTYVGY]” came in with an inhibition at 500 µM of 0%.

For “HPSWVLTAAHSMDES-NH2 [peptide-(202-216), HPSWVLTAAH -SMDES]”, the inhibition at 500 µM stood at 0%.

The substance “HSSREKEAKRNRTFV-NH2 [peptide-(303-317), HSSREKEAKRNRTFV]” yielded an inhibition at 500 µM of 0%.

“IVPISLPDSGLAERE-NH2 [peptide-(273-287), IVPI -SLPDSGLAERE]” gave an inhibition at 500 µM of 0%.

Take “LDSKKKLASGAVLIH-NH2 [peptide-(188-202), LDSKKKLA -SGAVLIH]”: the inhibition at 500 µM is 0%.

In turn, “LIDGKMTRRGDSPWQ-NH2 [peptide-(170-184), LIDGKMTRRGDSPWQ]” had an inhibition at 500 µM of 0%.

Consider “LLHLAQPATLSQTIV-NH2 [peptide-(260-274), LLHLAQPATLSQTIV]”, for which the inhibition at 500 µM amounted to 0%.

The substance “LPDSGLAERELNQAG-NH2 [peptide-(278-292), LPDSGLAERELNQAG]” showed an inhibition at 500 µM of 0%.

Turning to “MSNMVSENMLCAGI-NH2 [peptide-(335-348), MSNMVSENMLCAGI]”, the inhibition at 500 µM was determined as 0%.

For “PATLSQTIVPICLP-NH2 [peptide-(266-279), PATLSQTIVPICLP]”, at 500 µM the inhibition was 0%.

Regarding “PATLSQTIVPIGLPD-NH2 [peptide-(266-280) SEQ ID NO 8, PATLSQTIVPI -- GLPD]”, testing at 500 µM gave an inhibition of 0%.

“PATLSQTIVPISLPD-NH2 [peptide-(266-280) SEQ ID NO 7, PATLSQTIVPI -SLPD]” showed an inhibition at 500 µM of 0%.

In the case of “QDACEGDSGGPMVA-NH2 [peptide-(353-366), QDACEGDSGGPMVA]”, testing at 500 µM gave an inhibition of 0%.

On to “QETLVTGWGYHSSRE-NH2 [peptide-(293-307), QETLVTGWGYHSSRE]”, for which 500 µM produced 0% inhibition.

Turning to “RRWEKWELDLDIKEV-NH2 [peptide-(229-243), RRWEKWELDLDIKEV]”, at 500 µM the inhibition was 0%.

For the substance “SKKLLVRLGEYDLRR-NH2 [peptide-(216-230), SKKLLVRLGEYDLRR]”, testing at 500 µM gave an inhibition of 0%.

Turning to SKSTTDNDIALLHLA [peptide-(250-263)], the “Inhibition of APC (%)” value is on record as 0%.

Take “TRRGDSPWQVVLLDS-NH2 [(176-190), TRRGDSPWQVVLLDS]”: testing at 500 µM gave an inhibition of 25%.

For the substance “VLTAAHCMDESKKL-NH2 [peptide-(206-219), VLTAAHCMDESKKL]”, the inhibition at 500 µM was determined as 0%.

The inhibition is how much of the control response was suppressed. The low end stands for a response near the control, the high end for a response far below the control.
